Several values for one entry are separate records, joined by “and”; a condition that tells them apart may be missing. Equal entries are not always repeated.
Columns and labels:
Type in all cases: physicochemical
[1] = Dynamic vapor sorption (DVS), water sorption as Δm; conditions: for Water sorption Δm: 25 °C; for Observed Δm: DVS step compared to theoretical hydrate mass change; for Stable %RH range: RH range of the corresponding hydrate step on DVS; for change in mass (Δm): at 95 % relative humidity (maximum RH), stated in text
Experimental: The samples were analyzed at 25 °C with a Surface Measurements Systems DVS Advantage. A sample was weighted into a weighing pan and its mass was monitored while it was exposed to different relative humidities (%RH=%P/P0). Before the analysis, the weighing pan was subject to an antistatic program.
The analysis program consisted of two cycles. In each cycle, the relative humidity was increased stepwise up to 95 % RH (starting from 0 % RH, 9 steps with 10 % and one step with 5 %) and then decreased stepwise to 0 % RH again. In both sorption/desorption cycles, at each step, the sample was kept at the set relative humidity until dm/dt <0.002 %, over 15 min.

[2] = Phase solubility in deionized water (HPLC); conditions: for pH of mixture: aqueous solubility measurements, supplement; for pH at saturation solubility / solubility: deionized H2O, quadruplicates
Experimental: The pH‐solubility profile of cGMPSA salts and free acid was determined by phase solubility techniques.[18] Briefly, saturated mixtures of the compound were prepared by adding excess amount to 4 mL vials containing 2 mL deionized water, an acidic buffer (0.1 M HCl(aq), pH 1), or a basic buffer (0.1 M NaOH(aq), pH 13). They were allowed to equilibrate for 24 h using mild agitation before recording the pH. The clear solution was separated from the solids by filtration with a Cytiva Whatman™ Mini‐Uniprep™ polypropylene 0.45 μm filter device and diluted to an appropriate analytical concentration where needed. The sample was then analyzed by HPLC, and the solubility determined by integrating the area of the peak of interest against a standard curve. The solids were also analyzed by XRPD to record the crystal modification obtained.

[3] = Thermal analysis (DSC/TGA), decomposition; conditions: for Onset of decomposition (DSC exotherm): DSC 25 to 300 °C, 10 °C/min
Experimental: Differential scanning calorimetry (DSC) analyses were carried out on a Mettler DSC822e, equipped with a Thermo Haake EK45/MT cooler. The samples were weighed into a 40 μL Al‐cup, which were then closed with a pierced lid. The sample was scanned from 25 to 300 °C, with a scan rate of 10 °C/min.
Thermogravimetric analysis (TGA) was performed on a Mettler TGA/SDTA 851e, equipped with a Haake C50P cooler. Alternatively, thermogravimetric and DSC analyses were carried out simultaneously in a Mettler Toledo TGA/DSC 3+. The samples were weighed into a 100 μL Al‐cup and this was flushed with dry nitrogen gas during the analysis. The sample was scanned from 25 to 300 °C, with a scan rate of 10 °C/min.

[4] = 0 % RH, after final desorption cycle 2 (D2)
[5] = 30 % RH, desorption cycle 2 (D2)
[6] = 60 % RH, desorption cycle 2 (D2)
[7] = 95 % RH, desorption cycle 2 (D2)
[8] = hydrate step stable over 40–70 % RH
[9] = hydrate step stable over 60–95 % RH

SMILES	Water sorption Δm [1, 4]	Water sorption Δm [1, 5]	Water sorption Δm ([1]; 30 % RH, sorption cycle 1 (S1))	Water sorption Δm [1, 6]	Water sorption Δm ([1]; 60 % RH, sorption cycle 1 (S1))	Water sorption Δm [1, 7]	Water sorption Δm ([1]; 95 % RH, sorption cycle 1 (S1))	Observed Δm [1, 8]	Observed Δm [1, 9]	Stable %RH range [1, 8]	Stable %RH range [1, 9]	change in mass (Δm) [1]	change in mass (Δm) ([1]; listed as ‐BZ)	pH of mixture [2]	pH at saturation solubility [2]	solubility [2]	Observed Δm [1]	Stable %RH range [1]	enthalpy of decomposition ([3]; DSC)	Onset of decomposition (DSC exotherm) [3]
O=c1c2nc(Br)n([C@@H]3O[C@@H]4CO[P@@](O)(=S)O[C@H]4[C@H]3O)c2nc2[nH]c(-c3ccccc3)cn12.O=c1c2nc(Br)n([C@@H]3O[C@@H]4CO[P@@](O)(=S)O[C@H]4[C@H]3O)c2nc2[nH]c(-c3ccccc3)cn12.c1ccc(CNCCNCc2ccccc2)cc1 [cGMPSA‐BZ, N,N′-Dibenzylethylenediammonium RP-8-Bromo-β-phenyl-1,N2-ethenoguanosine-3′,5′-cyclicmonophosphorothioate (1:2)]	−0.2%	0.7%	0.6%	3.9%	1.9%	4.7%	4.8%	1.3%	3.9%	40–70 %RH	60–95 %RH	5%	about 5%	6,81	6.8 (±0.1)	0.01 (±0.01) mg/mL				
O=c1c2nc(Br)n([C@@H]3O[C@@H]4CO[P@@](O)(=S)O[C@H]4[C@H]3O)c2nc2[nH]c(-c3ccccc3)cn12.c1ccc(CCNCc2ccccc2)cc1 [cGMPSA‐Bnet, N-(Phenylmethyl)benzeneethanammonium RP-8-Bromo-β-phenyl-1,N2-ethenoguanosine-3′,5′-cyclicmonophosphorothioate]	0.7%	4.4%	3.4%	6.1%	5.2%	7.7%	8.0%							7,17	7.2 (±0.04)	0.05 (±0.03) mg/mL				
O=c1c2nc(Br)n([C@@H]3O[C@@H]4COP(=O)([S-])O[C@H]4[C@H]3O)c2nc2[nH]c(-c3ccccc3)cn12.O=c1c2nc(Br)n([C@@H]3O[C@@H]4COP(=O)([S-])O[C@H]4[C@H]3O)c2nc2[nH]c(-c3ccccc3)cn12.[Ca+2] (stereo partly shown) [cGMPSA‐Ca]	1.9%	12.4%	5.3%	15.5%	7.1%	22.0%	21.9%					22%		6,88	6.9 (±0.5)	0.28 (±0.2) mg/mL	1.9%	0 %RH	162.3 J/g	253.2 °C
O=c1c2nc(Br)n([C@@H]3O[C@@H]4COP(=O)(S)O[C@H]4[C@H]3O)c2nc2[nH]c(-c3ccccc3)cn12 (stereo partly shown) [cGMPSA‐H]	0.3%	5.7%	5.3%	6.7%	6.2%	9.3%	9.1%							2,47	2.5 (±0.2)	1.7 (±0.1) mg/mL				163.6 °C and ~ 163 °C

From PMC10695737, “Crystal Modifications of a Cyclic Guanosine Phosphorothioate Analogue, a Drug Candidate for Retinal Neurodegenerations” (ChemistryOpen, 2023)
